# Changes are numbered by the printed parent chain.
# Legend:
# FLT3 R834Q = target: T1, FLT3 R834Q (Homo sapiens, UniProt P36888, R834Q); test: DiscoverX KINOMEscan competition binding, FLT3 R834Q; details: no ATP
# T1 construct: purchased DiscoverX (KINOMEscan); host or cells: E. coli (T7 phage) or HEK-293
# T1 sequence (P36888 27-993 R834Q): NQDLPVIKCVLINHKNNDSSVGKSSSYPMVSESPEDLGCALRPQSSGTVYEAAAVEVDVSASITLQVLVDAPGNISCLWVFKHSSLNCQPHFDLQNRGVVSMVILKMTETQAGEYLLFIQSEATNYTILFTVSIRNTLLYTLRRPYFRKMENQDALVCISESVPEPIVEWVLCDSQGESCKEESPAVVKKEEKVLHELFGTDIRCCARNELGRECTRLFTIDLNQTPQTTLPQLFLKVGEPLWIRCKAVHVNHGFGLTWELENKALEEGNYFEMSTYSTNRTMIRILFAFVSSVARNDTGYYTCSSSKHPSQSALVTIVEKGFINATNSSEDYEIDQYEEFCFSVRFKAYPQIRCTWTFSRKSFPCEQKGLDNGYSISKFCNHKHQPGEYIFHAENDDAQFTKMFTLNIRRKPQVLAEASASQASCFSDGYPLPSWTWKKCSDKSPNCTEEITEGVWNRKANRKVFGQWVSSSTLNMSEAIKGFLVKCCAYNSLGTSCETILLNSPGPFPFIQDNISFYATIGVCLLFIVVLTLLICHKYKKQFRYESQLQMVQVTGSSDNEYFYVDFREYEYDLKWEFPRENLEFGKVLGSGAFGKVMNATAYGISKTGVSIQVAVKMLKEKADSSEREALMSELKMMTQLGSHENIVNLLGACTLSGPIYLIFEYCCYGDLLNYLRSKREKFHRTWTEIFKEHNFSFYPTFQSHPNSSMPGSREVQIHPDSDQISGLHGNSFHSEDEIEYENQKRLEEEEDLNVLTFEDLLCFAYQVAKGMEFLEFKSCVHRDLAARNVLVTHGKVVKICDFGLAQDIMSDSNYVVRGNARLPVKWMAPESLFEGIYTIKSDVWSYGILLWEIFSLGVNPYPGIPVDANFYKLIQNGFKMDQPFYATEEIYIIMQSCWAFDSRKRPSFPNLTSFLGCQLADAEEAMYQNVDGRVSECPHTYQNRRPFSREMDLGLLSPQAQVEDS
# Source text: (§1) Kinase binding data were obtained for various exemplary compounds prepared according to Examples 2-15 using the DiscoverX KINOMEscan® active site-directed competition binding site-directed assay protocol described below. […] As a result, the data report thermodynamic interaction affinities (Kd values), rather than IC50 values that are dependent on ATP concentrations. The assay uses a DNA-tagged version of the protein kinase, and an immobilized ligand bound to a solid support. Compounds that directly or indirectly prevent kinase binding to the immobilized ligand reduce the amount of kinase captured on the solid support, which is detected using an ultra-sensitive qPCR method. Affinity constants reported from the assay have been reported to be independent of the immobilized ligand used that is coupled to the solid support (See supplemental information in Fabian, M. A. et. al., (2005) Nat. […] Wodicka, L. […] Biol. 17, 1241-1249.) Kinase-tagged T7 phage strains were prepared in an E. coli host derived from the BL21 strain. E. coli were grown to log-phase and infected with T7 phage and incubated with shaking at 32° C. until lysis. […] Kds were determined using an 11-point 3-fold compound dilution series with three DMSO control points. […] The kinase concentration in the eluates was measured by qPCR. Binding constants (Kds) were calculated with a standard dose-response curve using the Hill equation. […]
# FLT3 = target: T2, FLT3 (Homo sapiens, UniProt P36888); test: DiscoverX KINOMEscan competition binding, FLT3; design: purchased RBC (Reaction Biology) HotSpot assay; details: no ATP
# T2 sequence (P36888 27-993): T1 sequence (P36888 27-993 R834Q) with Q808R
# Source text: as §1
compound,measurement,setting,value
"COc1cc2ncc(-c3nc(N[C@H]4CNCC[C@@H]4F)c(F)cc3F)n2nc1C1CCC1 [Compound 15a, 6-(6-cyclobutyl-7-methoxyimidazo[1,2-b]pyridazin-3-yl)-3,5-difluoro-N-((3S,4S)-4-fluoropiperidin-3-yl)pyridin-2-amine]",Kd,FLT3 R834Q,810 pM
same,Kd,FLT3,< 170 pM

# Reference: patent US20250368648A1, “MULTI-CYCLIC IRAK AND FLT3 INHIBITING COMPOUNDS AND USES THEREOF” (CHILDREN'S HOSPITAL MEDICAL CENTER, priority 2022, published 2025)
